Measured values from PubChem BioAssay (NCI).
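Abbreviation: GI50, concentration required for 50% inhibition of growth. TGI denotes the concentration required for complete inhibition of growth.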

Legend:
Assay in all cases: growth of human tumour cells (NCI), 384-well format
[1] = system: A498 renal
[2] = system: A549 NSCLC
[3] = system: ACHN renal
[4] = system: BT-549 breast
[5] = system: CAKI-1 renal
[6] = system: CCRF-CEM leukemia
[7] = system: COLO 205 colon
[8] = system: DU-145 prostate
[9] = system: EKVX NSCLC
[10] = system: HL-60(TB) leukemia
[11] = system: HOP-62 NSCLC
[12] = system: HOP-92 NSCLC
[13] = system: HS 578T breast
[14] = system: HT29 colon
[15] = system: IGROV1 ovarian
[16] = system: K-562 leukemia
[17] = system: KM12 colon
[18] = system: M14 melanoma
[19] = system: MALME-3M melanoma
[20] = system: MCF7 breast
[21] = system: MDA-MB-231 breast
[22] = system: MDA-MB-435 melanoma
[23] = system: MDA-MB-468 breast
[24] = system: NCI-H23 lung
[25] = system: NCI-H322M lung
[26] = system: NCI-H460 NSCLC
[27] = system: NCI-H522 lung
[28] = system: NCI/ADR-RES ovarian
[29] = system: OVCAR-3 ovarian
[30] = system: OVCAR-4 ovarian
[31] = system: OVCAR-5 ovarian
[32] = system: PC-3 prostate
[33] = system: RXF 393 renal
[34] = system: SF-295 CNS
[35] = system: SF-539 CNS
[36] = system: SK-MEL-2 melanoma
[37] = system: SK-MEL-28 melanoma
[38] = system: SK-MEL-5 melanoma
[39] = system: SK-OV-3 ovarian
[40] = system: SNB-19 CNS
[41] = system: SR leukemia
[42] = system: T-47D breast
[43] = system: TK-10 renal
[44] = system: U251 glioblastoma
[45] = system: UACC-257 melanoma
[46] = system: UACC-62 melanoma
[47] = system: UO-31 renal

`O=C1CC(c2ccc(N3CCOCC3)cc2)(c2ccsc2)NC(=O)C1Sc1ccccc1Cl` (stereo unspecified) was tested, and the GI50 [1] was 18.5 µM, the TGI [1] was over 88.7 µM and the GI50 [2] was over 80.4 µM. For the same compound, the TGI [2] was over 100 µM, the GI50 [3] was 33 µM and the TGI [3] was 98.7 µM. For the same compound, the GI50 [4] was 3.71 µM, the TGI [4] was 28.3 µM and the GI50 [5] was 52.7 µM. It also gave a TGI [5] of over 100 µM, a GI50 [6] of 3.39 µM and a TGI [6] of over 21.9 µM. For the same compound, the GI50 [7] was over 100 µM, the TGI [7] was over 100 µM and the GI50 [8] was 53.9 µM. For the same compound, the TGI [8] was over 100 µM, the GI50 [9] was 98.9 µM and the TGI [9] was over 100 µM. The GI50 [10] was 2.82 µM, the GI50 [11] was 13.6 µM and the TGI [11] was over 100 µM. For the same compound, the GI50 [12] was 3.34 µM, the TGI [12] was 18.7 µM and the GI50 [13] was 1.76 µM. It also gave a TGI [13] of 3.69 µM, a GI50 [14] of 62.7 µM and a TGI [14] of over 100 µM. For the same compound, the GI50 [15] was 46.5 µM, the TGI [15] was over 100 µM and the GI50 [16] was 3.97 µM. For the same compound, the TGI [16] was over 100 µM, the GI50 [17] was over 57.6 µM and the TGI [17] was over 100 µM. The GI50 [18] was 53.1 µM, the TGI [18] was over 100 µM and the GI50 [19] was over 51.2 µM. The TGI [19] was over 100 µM, the GI50 [20] was over 73.7 µM and the TGI [20] was over 100 µM. It also gave a GI50 [21] of 13.9 µM, a TGI [21] of over 100 µM and a GI50 [22] of over 100 µM. For the same compound, the TGI [22] was over 100 µM, the GI50 [23] was over 100 µM and the TGI [23] was over 100 µM. It also gave a GI50 [24] of over 95.8 µM, a TGI [24] of over 100 µM and a GI50 [25] of over 100 µM. The TGI [25] was over 100 µM, the GI50 [26] was 9.07 µM and the TGI [26] was 98.5 µM. The GI50 [27] was 6.42 µM, the TGI [27] was over 100 µM and the GI50 [28] was 19.4 µM. For the same compound, the TGI [28] was 41.5 µM, the GI50 [29] was 34.2 µM and the TGI [29] was over 100 µM. It also gave a GI50 [30] of 34 µM, a TGI [30] of over 100 µM and a GI50 [31] of 67.7 µM. For the same compound, the TGI [31] was over 100 µM, the GI50 [32] was 43.6 µM and the TGI [32] was over 100 µM. The GI50 [33] was 2.58 µM, the TGI [33] was 7.47 µM and the GI50 [34] was 35.7 µM. For the same compound, the TGI [34] was over 100 µM, the GI50 [35] was 23.3 µM and the TGI [35] was over 100 µM. It also gave a GI50 [36] of over 56.1 µM, a TGI [36] of over 100 µM and a GI50 [37] of 66.7 µM. The TGI [37] was over 100 µM, the GI50 [38] was over 100 µM and the TGI [38] was over 100 µM. It also gave a GI50 [39] of over 85.3 µM, a TGI [39] of over 100 µM and a GI50 [40] of 16.9 µM. It also gave a TGI [40] of 63.8 µM, a GI50 [41] of 0.692 µM and a TGI [41] of 1.74 µM. For the same compound, the GI50 [42] was 66 µM, the TGI [42] was over 100 µM and the GI50 [43] was 75.9 µM. It also gave a TGI [43] of over 100 µM, a GI50 [44] of 5.73 µM and a TGI [44] of 65.7 µM. For the same compound, the GI50 [45] was over 100 µM, the TGI [45] was over 100 µM and the GI50 [46] was 12.7 µM. The TGI [46] was over 100 µM, the GI50 [47] was 33.7 µM and the TGI [47] was over 100 µM.

`C[C@@H]1CN(C(=O)c2ccc(NC(=O)c3cc(O[C@H](C)c4c(Cl)ccc(F)c4Cl)c(N)nn3)cc2)C[C@H](C)N1` gave a GI50 [1] of 2.04 µM, a TGI [1] of 3.88 µM and a GI50 [2] of 1.45 µM. For the same compound, the TGI [2] was 5 µM, the GI50 [3] was 3.05 µM and the TGI [3] was 11.1 µM. It also gave a GI50 [4] of 2.39 µM, a TGI [4] of 4.27 µM and a GI50 [5] of 2.16 µM. It also gave a TGI [5] of 5.69 µM, a GI50 [6] of 0.395 µM and a TGI [6] of 1.01 µM. For the same compound, the GI50 [7] was 1.33 µM, the TGI [7] was 3.94 µM and the GI50 [8] was 3.89 µM. The TGI [8] was 14.5 µM, the GI50 [9] was 1.52 µM and the TGI [9] was 5.93 µM. For the same compound, the GI50 [10] was 1.25 µM, the TGI [10] was 2.51 µM and the GI50 [11] was 2.42 µM. It also gave a TGI [11] of 7.03 µM, a GI50 [12] of 0.66 µM and a TGI [12] of 2.42 µM. The GI50 [13] was 1.8 µM, the TGI [13] was 3.44 µM and the GI50 [14] was 1.22 µM. It also gave a TGI [14] of 2.59 µM, a GI50 [15] of 2.36 µM and a TGI [15] of 10.2 µM. For the same compound, the GI50 [16] was 0.152 µM, the TGI [16] was 0.319 µM and the GI50 [17] was 0.0407 µM. It also gave a TGI [17] of 5.37 µM, a GI50 [18] of 2.47 µM and a TGI [18] of 6.48 µM. For the same compound, the GI50 [19] was 1.44 µM, the TGI [19] was 3.08 µM and the GI50 [20] was 0.845 µM. For the same compound, the TGI [20] was 4.77 µM, the GI50 [21] was 1.74 µM and the TGI [21] was 5.52 µM. For the same compound, the GI50 [22] was 1.61 µM, the TGI [22] was 6.93 µM and the GI50 [23] was 1.9 µM. It also gave a TGI [23] of 3.7 µM, a GI50 [24] of 0.642 µM and a TGI [24] of 3.76 µM. For the same compound, the GI50 [25] was 5.08 µM, the TGI [25] was 16.1 µM and the GI50 [26] was 1 µM. It also gave a TGI [26] of 3.73 µM, a GI50 [27] of 1.99 µM and a TGI [27] of 7.16 µM. For the same compound, the GI50 [28] was 14.8 µM, the TGI [28] was 28.2 µM and the GI50 [29] was 2.75 µM. For the same compound, the TGI [29] was 7.2 µM, the GI50 [30] was 4.1 µM and the TGI [30] was 10.2 µM. It also gave a GI50 [31] of 1.54 µM, a TGI [31] of 4.7 µM and a GI50 [32] of 2.58 µM. The TGI [32] was 7.16 µM, the GI50 [33] was 1.74 µM and the TGI [33] was 3.27 µM. For the same compound, the GI50 [34] was 1.72 µM, the TGI [34] was 5.81 µM and the GI50 [35] was 2.02 µM. It also gave a TGI [35] of 3.99 µM, a GI50 [36] of 1.77 µM and a TGI [36] of 4.27 µM. For the same compound, the GI50 [37] was 2.82 µM, the TGI [37] was 7.32 µM and the GI50 [38] was 1.53 µM. For the same compound, the TGI [38] was 3.48 µM, the GI50 [39] was 5.26 µM and the TGI [39] was 16.2 µM. It also gave a GI50 [40] of 4.02 µM, a TGI [40] of 13.5 µM and a TGI [41] of 0.0109 µM. It also gave a GI50 [42] of 3.17 µM, a TGI [42] of 8.97 µM and a GI50 [43] of 3.5 µM. The TGI [43] was 10.3 µM, the GI50 [44] was 2 µM and the TGI [44] was 5.25 µM. The GI50 [45] was 1.69 µM, the TGI [45] was 3.07 µM and the GI50 [46] was 1.34 µM. It also gave a TGI [46] of 2.89 µM, a GI50 [47] of 3.53 µM and a TGI [47] of 12.4 µM.
